Experimental data published in patent US7091238B1, “Thienylhydrazon with digitalis-like properties (positive inotropic effects)” (University of Maryland, priority 1999, dated 2006).
Entries after “also recorded” stand apart in the source; their conditions may differ.

Tests used:
[1] = test system: neuromuscular transmission; assay: Contractions of gastrocnemius muscle induced by stimulation of the sciatic nerve; type: in vivo; conditions: rat gastrocnemius, vs DMSO vehicle
Protocol: FIG. 30. Records of contractions induced by stimulation of the sciatic nerve of equilibrated rat gastrocnemius muscles and of arterial pressure. In control, contractions were induced by intravenous injection of DMSO ([…]). LASSBio-294 was administered in DMSO. Calibration: Horizontal, 1 cm=24 s; Vertical 2 g=100 mm Hg.
FIG. 31. Records of contractions of rat gastrocnemius muscles induced by stimulation of the sciatic nerve and of arterial pressure. For control, contraction was induced by intravenous injection of […] (0.04 ml). LASSBio-294 was administered in DMSO.

isolated rat heart = assay: Electrocardiogram of isolated heart (modified Langendorff perfusion); conditions: isolated rat heart without pre-load; 10, 50, 100 μM
Protocol: FIG. 4. Hearts of adult rats were quickly removed and placed in an aorta retrograde perfusion system (modified Langendorrff) for measurement of electrocardiogram (ECG).
(§1) a Recordings of electrocardiogram (ECG) of isolated rat heart are shown in FIG. 4 which compare control, LASSBio-294 treatment, 10 uM, 50 μM and 100 μM and post-treatment wash. […] FIG. 5 illustrates a test of change in isometric tension induced by LASSBio-294 in isolated hearts under preload. Concentration of LASSBio-294 in the bathing solution is 50 μM, which is half of the highest concentration tested in the ECG tests described in FIG. 4. Hearts were treated under a pre-load of 1 g; control was compared to LASSBio-294 and wash. […] This effect was lost in the wash out period. The pre-load tension test is considered to be an animal model of congestive heart disease. Comparing the effect of drugs with this test is predictive of therapeutic effect of treatment in human congestive heart disease. General Method
(§2) Hearts were quickly removed and placed in an aorta retrograde perfusion system for measurement of ECG. Increasing concentrations of LASSBio-294 were added to the bathing solution. The system equilibrated for 5 min. before measurement of isometric tension after each addition.

particulate PDE 3 = assay: Direct inhibition of particulate PDE 3; type: biochemical; conditions: rabbit heart
isolated hearts = assay: Isometric (twitch) tension in isolated hearts under pre-load; set-up: species or system rat; conditions: 50 μM in bathing solution; pre-load of 1 g; vs control and wash
Protocol: FIG. 5. Recordings of twitch tension in isolated hearts. Control (top), LASSBio-294 (middle) and wash (bottom).
as §1, §2

[2] = test system: sarcoplasmic reticulum of cardiac muscle fibers; assay: Caffeine-induced contracture of saponin-treated left ventricular fibers (Ca2+ uptake/storage by sarcoplasmic reticulum); set-up: species or system Wistar rats
Protocol: FIG. 7. Bundles of left ventricular fibers were treated with saponin and exposed to 0.5 mM CaCl2 to enable maximal tension development (Po). The contracture initiated by caffeine (20 mM) was measured after treatment of the sarcoplasmic reticulum (SR) with a solution of pCa 6.6 in the absence or presence of LASSBio-294 (100 μM0 for 0.5, 1.0 and 5.0 min. N=6. Calibration: Vertical, 10 mm=20 mg load; Horizontal, 10 mm=40 sec.
FIG. 8. Contracture induced by caffeine in relation to loading of the sarcoplasmic reticulum with a solution of pCa 6.6.
FIG. 9. The contractual responses were obtained during exposure to 20 mM caffeine after loading of the sarcoplasmic reticulum with pCA 6.6 in the absence and the presence of LASSBio-294.
FIG. 11. Concentration-response relationship for contracture induced by caffeine in the presence of 100 μM LASSBio-294. *p<0.01.
b. Graphic representation of the tests in FIG. 7 showing the effect of LASSBio-294 on uptake of Ca^2+ by sarcoplasmic reticulum in isolated cardiac muscle with sarcolemma removed. FIG. 9 illustrates the effect of LASSBio-294 on tension in isolated cardiac muscle with sarcolemma removed was measured. Measurement of contraction induced by caffeine, as a function concentration of LASSBio-294 in bathing solution. FIG. 9 is a graphic representation of the effect of increasing concentrations of LASSBio-294 between 0 and 20 μM. […] FIG. 12 illustrates the effect of LASSBio-294 on sensitivity of cardiac fibers to calcium. Calcium levels can induce isometric twitch. […] FIG. 13 provides a graphic representation of data in FIG. 12. General Method
Bundles of left ventricular muscle (130 μm diameter and 1–2 mm in thickness) from Wistar rats were dissected out and mounted for measurement of isometric tension. The muscles were treated with saponin solution (0.5%) for 5 minutes to […] the permeability of the sarcolemma. The membranes of the SR were then […] with Triton X-100 (1% v/v) with the objective of investigating the effects of LASSBio-294 on the sensitivity of the contractile system Ca^2+. […] Caffeine is used to elicit contraction in muscle. Comparison of caffeine alone to caffeine in the presence of LASSBio-294 was measured.

[3] = test system: sarcoplasmic reticulum of human skeletal muscle fibers (vastus lateralis); assay: Induced tension in isolated human skeletal muscle fiber (sarcolemma removed); type: cell-based; conditions: 25, 50, 100 μM, SR loaded at pCa 7.0 for 3 min
Protocol: FIG. 14. Isolated human skeletal muscle fiber from the vastus lateralis (sarcolemmal membrane-free) was exposed to 0.5 mM of CaCl2 to enable maximal muscle tension (Po). The histogram show the effect of LASSBio-294 at concentrations of 25, 50 and 100 μM on induced tension in human fibers. N=6 Calibration: Vertical; 10 mm=20 mg; Horizontal, 10 mm=40 s.
Isolated muscle fiber from the vastus lateralis was exposed to 0.5 mM of CaCl2 to enable maximal muscle tension.

[4] = Toxicity study: body weight after injection; type: in vivo, mice; conditions: vs saline and solvent vehicle controls, 1–15 days of treatment
Protocol: b. Rats were weighed before and after treatment with LASSBio 204. […] Six rats were examined in each group, measurements were made after 1–15 days of treatment. […] Mice were injected with LASSBio-294 and their blood examined for cell changes. Experimental groups received 2 or 10 mg/kg of drug. […] Table 4 lists blood chemistry analysis of mice treated with LASSBio-294. Experimental groups received 2 or 10 mg/kg of drug. Controls were saline and solvent. […] The low values of glucose found could be due to an artifact of the technique, glucose being a byproduct of hemolysis. […] General Method

For O=C(NN=Cc1cccs1)c1ccc2c(c1)OCO2 [LASSBio-294, 3,4-methylenedioxybenzoyl-2-thienylhydrazone], the “effect on neuromuscular junction / transmission” value [1] was “no effect on the neuromuscular junction; also recorded: no effect on neuromuscular transmission; also recorded: unaffected”, the “effect on ECG” value (isolated rat heart) was “No treatment had any effect on ECG; also recorded: no change” and the “direct inhibition of particulate PDE 3” value (particulate PDE 3) was “did not inhibit directly”. The isometric tension (isolated hearts) was “increase in isometric tension compared to control”, the “uptake of Ca^2+ by the sarcoplasmic reticulum” value ([2]; 100 μM, loading at pCa 6.6, 20 mM caffeine contracture) was “increases uptake of Ca^2+” and the “response to caffeine as a function of compound concentration” value ([2]; 20 mM caffeine, concentrations between 0 and 20 μM) was “increases until 10 μM”. The “contraction (isometric tension) elicited by caffeine” value ([2]; caffeine 0.05 to 10 mM, 100 μM compound vs control) was “increased over control at all concentrations”, the “storage of Ca^2+ by the sarcoplasmic reticulum” value ([2]; cardiac muscle fibers) was “increases the storage of Ca^2+” and the “release of Ca^2+ from the sarcoplasmic reticulum / induced tension” value [3] was “induces the release of Ca^2+; also recorded: evoked a contraction”. The body weight [4] was “unaffected” and the body weight ([4]; listed as LASSBio294) was “no change in weight”.
